Earlier results on one compound are cited in patent publication EP3342399B1, “PHARMACEUTICAL COMPOSITIONS COMPRISING POSACONAZOLE AND MANUFACTURING METHOD” (Abdi Ibrahim Ilac Sanayi ve Ticaret A.S., priority 2016, dated 2018).

Each structure is given as a SMILES string. Like-named read-outs stand apart in the source and are kept apart here.

Regarding `CC[C@@H]([C@H](C)O)n1ncn(-c2ccc(N3CCN(c4ccc(OC[C@@H]5CO[C@@](Cn6cncn6)(c6ccc(F)cc6F)C5)cc4)CC3)cc2)c1=O` [Posaconazole, 1-[(1S,2S)-1-Ethyl-2-hydroxypropyl]-4-{4-[4-(4-{2-[(2S,4R)-(1,2,4-triazol-1-ylmetyl)-2-(2,4-difluorophenyl)-oxolan-4-ylmetyl]phenyl}piperazin-1-yl)phenyl]}-2,3-dihydro-1,2,4-triazol-3-one], where the note is “BCS Class II”, the permeability result is listed as “high” and the solubility entry is “low”. Further, the solubility result (at low pH) is given as “high”.
